Assay results reported in patent US10273224B2, “Substituted pyrimidine compounds, compositions and medicinal applications thereof” (JUBILANT BIOSYS LIMITED, priority 2013, dated 2019).
Counter-ions that a name gives are not always drawn.

biological target: T1, EGFR (L858R & T790M) (Homo sapiens, UniProt P00533, L858R/T790M); test: EGFR (L858R & T790M) inhibition assay, HTRF method; details: biochemical HTRF; EGFR (T790M/L858R) 2.5 nM, ATP 5 μM, 60 min room temperature
T1 construct: GST; purchased Proqinase
Protocol: Example 25: Biological Activity: EGFR T790M Assay Protocol
The objective of the experiment is to find the IC50 for the compounds using HTRF method.
Reagents for Enzyme Assay:
1. Enzyme Assay Buffer: 60 mM HEPES (pH 7.4), 50 mM NaCl, 20 mM MgCl2, 5 mM MnCl2, filter using 0.2 µm pore size, store at 4° C.
Supplements (add fresh to the enzyme buffer): Make 1M DTT stock, 5% BSA stock and 0.1M Na3OV4 stored at 4° C. Enzyme assay buffer 50 ml, 1 M DTT 100 μl, 5% BSA 500 μl, 0.1M Na3OV4 50 μl.
2. GST-hEGFR (L858R), active: EGFR (T790M/L858R), active (Proqinase), 3.6 μM stock; 2.5 nM in final assay.
3. Gastrin Precusor-Biotinylated: Gastrin precursor (Tyr87) biotinylated peptide (EEAY*GWM), Cell Signaling Tech 1310, Lot-7, Want final 0.5 μM in assay
4. ATP: 10 mM stock in 100 μl Enzyme assay buffer pH 7.4 prepared freshly, want 5 μM in final assay.
5. Test compounds: Dissolve powders in 100% DMSO to a final stock concentration of 10 mM (volume in μL to add for 10 mM=mg powder×10^5/MW). Final comp concentration in the assay plate is starting at 10 μM.
1. HTRF buffer: 50 mM Tris-HCl, pH-7.5, 100 mM NaCl, 0.1% BSA, 0.05% Tween20, 0.5 mM EDTA, filter using 0.2 µm pore size, store at 4° C.
Phycolink® Streptavidin-Allophycocyanin (SA-APC) Prozyme, Cat. #PJ25S, Lot #896 085, 2.06 mg/mL, APC concentration is 11.6 μM, streptavidin concentration is 15.5 μM. Want 12 nM final in assay (based on streptavidin concentration).
2. Europium-W1024-PT-66 Anti Phospho Tyrosine Antibody: Perkin Elmer (AD0068), monoclonal IgG1 that recognizes phospho tyrosine peptide 100 μg/ml stock. Want 0.1 nM final in assay.
• 1. Make the compound dilution by TECAN as per the above scheme. • 2. Add 16 μl of diluted compound to the assay plate by using TECAN • 3. Add 10 μl of enzyme mix to each well except mins. • 4. Add 20 μl of substrate and ATP mix into each well of the assay plate manually. • 5. Incubate the plate at room temperature for 60 min with shaking. • 6. Meanwhile prepare the HTRF mix and add 75 μl to the HTRF plate. • 7. When the incubation is over, transfer 10 μl of the reaction mixture to the HTRF assay plate and incubate for 30 min at room temperature with shaking. • 8. Take the reading in Pherastar (ext 337 nm, em 665 & 620 nm). • 9. Analyze the results using Graphpad prism after calculation the z factor, signal window and % inhibition to get the IC50.
Compounds having IC50<10 nM are designated as “A”; 10-100 nM are designated as “B”; and >100 nM as “C”.

T1 sequence (P00533 25-1210 T790M/L858R): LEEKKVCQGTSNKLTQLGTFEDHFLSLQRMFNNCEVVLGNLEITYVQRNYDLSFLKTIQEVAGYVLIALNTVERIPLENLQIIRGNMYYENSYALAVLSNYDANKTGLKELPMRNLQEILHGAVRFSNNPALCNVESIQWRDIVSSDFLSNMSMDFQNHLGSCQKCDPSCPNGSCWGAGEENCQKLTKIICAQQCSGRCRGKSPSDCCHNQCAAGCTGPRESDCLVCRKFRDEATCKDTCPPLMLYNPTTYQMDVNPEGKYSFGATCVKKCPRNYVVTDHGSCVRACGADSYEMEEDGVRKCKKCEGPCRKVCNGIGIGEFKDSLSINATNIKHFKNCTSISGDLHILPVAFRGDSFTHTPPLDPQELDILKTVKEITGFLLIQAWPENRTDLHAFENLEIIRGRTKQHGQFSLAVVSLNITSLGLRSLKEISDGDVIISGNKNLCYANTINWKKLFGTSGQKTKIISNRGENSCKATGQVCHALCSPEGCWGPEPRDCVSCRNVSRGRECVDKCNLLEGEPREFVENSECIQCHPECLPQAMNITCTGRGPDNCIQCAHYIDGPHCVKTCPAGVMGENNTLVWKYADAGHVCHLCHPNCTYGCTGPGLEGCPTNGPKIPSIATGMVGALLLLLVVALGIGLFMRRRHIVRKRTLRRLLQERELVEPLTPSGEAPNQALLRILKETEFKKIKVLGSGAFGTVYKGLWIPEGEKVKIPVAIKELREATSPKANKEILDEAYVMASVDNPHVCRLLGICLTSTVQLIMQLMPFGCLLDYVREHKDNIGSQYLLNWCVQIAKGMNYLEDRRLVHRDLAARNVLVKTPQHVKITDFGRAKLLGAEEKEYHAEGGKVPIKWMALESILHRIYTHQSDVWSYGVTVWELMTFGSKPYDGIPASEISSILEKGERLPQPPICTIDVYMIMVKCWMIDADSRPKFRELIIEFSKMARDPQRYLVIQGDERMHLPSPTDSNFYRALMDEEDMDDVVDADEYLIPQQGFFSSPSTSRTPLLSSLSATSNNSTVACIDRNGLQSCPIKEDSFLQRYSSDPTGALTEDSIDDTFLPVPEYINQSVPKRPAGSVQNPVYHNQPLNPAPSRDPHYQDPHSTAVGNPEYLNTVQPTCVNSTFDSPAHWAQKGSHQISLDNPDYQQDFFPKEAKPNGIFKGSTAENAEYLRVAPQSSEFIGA

Row | IC50 [nM] | Compound
1 | 10 to 100 | C=CC(=O)NC1CCCC(Nc2nc(Nc3cn(C)nc3Cl)ncc2Cl)C1 (centres unmarked) [Compound I-95, N-(3-((5-chloro-2-((3-chloro-1-methyl-1H-pyrazol-4-yl)amino)pyrimidin-4-yl)amino)cyclohexyl)acrylamide]
2 | < 10 | C=CC(=O)Nc1cc(Cl)cc(Nc2nc(Nc3cnn(C)c3)ncc2Cl)c1 [Compound I-35, N-(3-chloro-5-((5-chloro-2-((1-methyl-1H-pyrazol-4-yl)amino)pyrimidin-4-yl)amino)phenyl)acrylamide]
3 | > 100 | C=CC(=O)NC1CCC(Nc2nc(Nc3cnn(C)c3)ncc2Cl)C1 (centres unmarked) [Compound I-93, N-(3-((5-chloro-2-((1-methyl-1H-pyrazol-4-yl)amino)pyrimidin-4-yl)amino)cyclopentyl)acrylamide]
4 | > 100 | C=CC(=O)Nc1cccc(Oc2nc(Nc3cnn(CC(C)(C)O)c3)ncc2Cl)c1 [Compound I-81, N-(3-((5-chloro-2-((1-(2-hydroxy-2-methylpropyl)-1H-pyrazol-4-yl)amino)pyrimidin-4-yl)oxy)phenyl)acrylamide]
5 | < 10 | C=CC(=O)Nc1cccc(Nc2nc(Nc3cnn(C4CCNCC4)c3)ncc2Cl)c1 [Compound I-62, N-(3-((5-chloro-2-((1-(piperidin-4-yl)-1H-pyrazol-4-yl)amino)pyrimidin-4-yl)amino)phenyl)acrylamide trifluoroacetate]
6 | > 100 | CN(C)C/C=C/C(=O)N[C@H]1CCC[C@H](CNc2nc(Nc3cnn(C)c3)ncc2Cl)C1 (single isomer, unassigned) [I-103 (diastereomer 2)]
7 | > 100 | CN(C)C/C=C/C(=O)NC1CCCC(Nc2nc(Nc3cnn(C)c3)ncc2Cl)C1 (centres unmarked) [Compound I-101, (E)-N-(3-((5-chloro-2-((1-methyl-1H-pyrazol-4-yl)amino)pyrimidin-4-yl)amino)cyclohexyl)-4-(dimethylamino)but-2-enamide]
8 | 10 to 100 | C=CC(=O)Nc1cccc(Nc2nc(Nc3cnn(C4CCOC4)c3)ncc2Cl)c1 (centres unmarked) [Compound I-49, N-(3-((5-chloro-2-((1-(tetrahydrofuran-3-yl)-1H-pyrazol-4-yl)amino)pyrimidin-4-yl)amino)phenyl)acrylamide]
9 | > 100 | C=CC(=O)Nc1cccc(Oc2nc(Nc3c(C)nn(C4CCN(C)CC4)c3C)ncc2Cl)c1 [Compound I-83, N-(3-((5-chloro-2-((3,5-dimethyl-1-(1-methylpiperidin-4-yl)-1H-pyrazol-4-yl)amino)pyrimidin-4-yl)oxy)phenyl)acrylamide]
10 | 10 to 100 | C=CC(=O)Nc1cccc(Nc2nc(Nc3nnc(N4CCN(C)CC4)s3)ncc2Cl)c1 [Compound I-41, N-(3-((5-chloro-2-((5-(4-methylpiperazin-1-yl)-1,3,4-thiadiazol-2-yl)amino)pyrimidin-4-yl)amino)phenyl)acrylamide]
11 | < 10 | C=CC(=O)Nc1cc(Nc2nc(Nc3cnn(C4CCN(C)CC4)c3)ncc2Cl)c(F)cc1F [Compound I-69, N-(5-((5-chloro-2-((1-(1-methylpiperidin-4-yl)-1H-pyrazol-4-yl)amino)pyrimidin-4-yl)amino)-2,4-difluorophenyl)acrylamide]
12 | 10 to 100 | C=CC(=O)Nc1cccc(N(C)c2nc(Nc3cnn(C4CCN(C)CC4)c3)ncc2Cl)c1 [Compound I-72, N-(3-((5-chloro-2-((1-(1-methylpiperidin-4-yl)-1H-pyrazol-4-yl)amino)pyrimidin-4-yl)(methyl)amino)phenyl)acrylamide]
13 | > 100 | CN1CCC(n2cc(Nc3ncc(F)c(Nc4cccc(NC(=O)C=C5CCCCC5)c4)n3)cn2)CC1 [Compound I-50, 2-cyclohexylidene-N-(3-((5-fluoro-2-((1-(1-methylpiperidin-4-yl)-1H-pyrazol-4-yl)amino)pyrimidin-4-yl)amino)phenyl)acetamide]
14 | < 10 | C=CC(=O)Nc1ccc(F)c(Nc2nc(Nc3cc(C)ns3)ncc2Cl)c1 [Compound I-117, N-(3-((5-chloro-2-((3-methylisothiazol-5-yl)amino)pyrimidin-4-yl)amino)-4-fluorophenyl)acrylamide]
15 | > 100 | CN(C)C/C=C/C(=O)N[C@@H]1CCC[C@@H](CNc2nc(Nc3cnn(C)c3)ncc2Cl)C1 (single isomer, unassigned) [I-102 (diastereomer 1)]
16 | 10 to 100 | C=CC(=O)Nc1cccc(Nc2nc(Nc3cnn(CC4CC4)c3)ncc2Cl)c1 [Compound I-7, N-(3-((5-chloro-2-((1-(cyclopropylmethyl)-1H-pyrazol-4-yl)amino)pyrimidin-4-yl)amino)phenyl)acrylamide]
17 | < 10 | C=CC(=O)Nc1cccc(Oc2nc(Nc3cnn(C)c3)ncc2Cl)c1 [Compound I-85, N-(3-((5-chloro-2-((1-methyl-1H-pyrazol-4-yl)amino)pyrimidin-4-yl)oxy)phenyl)acrylamide]
18 | > 100 | C=CC(=O)Nc1cccc(Nc2nc(Nc3c(C)nn(C4CCN(C)CC4)c3C)ncc2Cl)c1 [Compound I-8, N-(3-((5-chloro-2-((3,5-dimethyl-1-(1-methylpiperidin-4-yl)-1H-pyrazol-4-yl)amino)pyrimidin-4-yl)amino)phenyl)acrylamide]
19 | > 100 | C=CC(=O)NC1CCCC(Nc2nc(Nc3cnn(C)c3)ncc2Cl)C1 (centres unmarked) [Compound I-126, N-(3-((5-chloro-2-((1-methyl-1H-pyrazol-4-yl)amino)pyrimidin-4-yl)amino)cyclohexyl)acrylamide 4-methylbenzenesulfonate]
20 | 10 to 100 | C=CC(=O)Nc1cccc(Nc2nc(Nc3cnn(C4CCN(C)CC4)c3)ncc2OC)c1 [Compound I-12, N-(3-((5-methoxy-2-((1-(1-methylpiperidin-4-yl)-1H-pyrazol-4-yl)amino)pyrimidin-4-yl)amino)phenyl)acrylamide]
21 | 10 to 100 | C=CC(=O)N[C@@H]1CCCC[C@H](Nc2nc(Nc3cnn(C)c3)ncc2Cl)C1 (single isomer, unassigned) [I-113 (Isomer 2)]
22 | > 100 | CN1CCC(n2cc(Nc3ncc(Cl)c(Nc4cccc(NC(=O)C=C5CCC(F)(F)CC5)c4)n3)cn2)CC1 [Compound I-25, N-(3-((5-chloro-2-((1-(1-methylpiperidin-4-yl)-1H-pyrazol-4-yl)amino)pyrimidin-4-yl)amino)phenyl)-2-(4,4-difluorocyclohexylidene)acetamide]
23 | > 100 | CN1CCC(n2cc(Nc3ncc(Cl)c(Nc4cccc(NC(=O)C=C5CCCCC5)c4)n3)cn2)CC1 [Compound I-28, N-(3-((5-chloro-2-((1-(1-methylpiperidin-4-yl)-1H-pyrazol-4-yl)amino)pyrimidin-4-yl)amino)phenyl)-2-cyclohexylideneacetamide]
24 | > 100 | C=CC(=O)Nc1cccc(Nc2nc(Nc3cnn(C)c3)nc(C)c2Cl)c1 [Compound I-59, N-(3-((5-chloro-6-methyl-2-((1-methyl-1H-pyrazol-4-yl)amino)pyrimidin-4-yl)amino)phenyl)acrylamide]
25 | > 100 | C=CC(=O)Nc1cccc(Oc2nc(Nc3c(C)nn(C)c3C)ncc2Cl)c1 [Compound I-84, N-(3-((5-chloro-2-((1,3,5-trimethyl-1H-pyrazol-4-yl)amino)pyrimidin-4-yl)oxy)phenyl)acrylamide]
26 | > 100 | CN(C)C/C=C/C(=O)N1CCCC(Nc2nc(Nc3cnn(C)c3)ncc2Cl)C1 (single isomer, unassigned) [II-3 (Enantiomer 1), (E)-1-(3-((5-chloro-2-((1-methyl-1H-pyrazol-4-yl)amino)pyrimidin-4-yl)amino)piperidin-1-yl)-4-(dimethylamino)but-2-en-1-one]
